These results are taken from article PMC11143257, “Atomistic mechanism of coupling between cytosolic sensor domain and selectivity filter in TREK K2P channels” (Nature Communications, 2024).

Substitutions are numbered along the chain they refer to.

One assay deals with T1, TREK-1 F325C (Homo sapiens, UniProt O95069, F325C).
T1 construct: expressed in transfected cells; host or cells: Xenopus laevis oocytes (cRNA injection), excised inside-out patches
T1 sequence (O95069 1-426 F325C): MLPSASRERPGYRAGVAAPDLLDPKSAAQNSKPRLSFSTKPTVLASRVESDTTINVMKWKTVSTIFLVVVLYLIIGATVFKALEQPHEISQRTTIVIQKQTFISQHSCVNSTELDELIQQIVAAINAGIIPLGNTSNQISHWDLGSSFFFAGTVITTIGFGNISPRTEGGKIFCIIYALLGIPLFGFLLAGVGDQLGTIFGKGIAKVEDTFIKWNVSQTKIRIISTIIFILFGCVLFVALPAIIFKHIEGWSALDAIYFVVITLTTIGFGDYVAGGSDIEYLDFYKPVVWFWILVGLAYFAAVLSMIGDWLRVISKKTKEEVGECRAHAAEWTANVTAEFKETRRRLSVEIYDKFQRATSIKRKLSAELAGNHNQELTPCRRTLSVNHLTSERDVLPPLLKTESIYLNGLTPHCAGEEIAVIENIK
Description: MTS probe modification, inside-out patch-clamp. As to conditions: 100 µM decyl-MTS. Format: cell-based. The method, then:
(§1) First, we measured WT TREK-1, WT TRAAK and TREK-2^* channels without modifiable cysteine residues as references. […] Note, that patch integrity and channel regulation were tested with either 1 mM tetra-pentyl-ammonium (TPenA) and a short pHi activation step. Next, we conducted systematic cysteine scanning mutagenesis of the entire pCt and examined the effect of charged and aliphatic MTS probes.
(§2) Xenopus laevis oocytes were surgically removed from anesthetized adult females, treated with type II collagenase (Sigma-Aldrich/Merck, Germany) and manually defolliculated. A solution containing the K^+ channel-specific cRNA at a desired concentration was injected into Dumont stage V - VI oocytes and subsequently incubated at 17 °C in a solution containing (mM): 54 NaCl, […], 2.4 NaHCO3, 0.82 MgSO4 x 7 H2O, 0.41 CaCl2, 0.33 Ca(NO3)2 x 4 H2O and 7.5 TRIS (pH 7.4 adjusted with NaOH/HCl) for 1 - 7 days before use. Patch-clamp recordings in an inside-out configuration under voltage-clamp conditions were performed at room temperature (22 - 24 °C). Patch pipettes were made from thick-walled borosilicate glass GB 200TF-8P (Science Products, Germany), had resistances of 0.2 - 0.5 MΩ (tip diameter of 10 - 25 µm) and filled with a pipette solution (in mM): 120 KCl, 10 HEPES and 3.6 CaCl2 (pH 7.4 adjusted with KOH/HCl). Intracellular bath solutions and compounds were applied to the cytoplasmic side of excised patches for the various K^+ channels via a gravity flow multi-barrel pipette system. The intracellular solution had the following composition (in mM): 120 KCl, 10 HEPES, 2 EGTA, and 1 Pyrophosphate (pH adjusted with KOH/HCl). Currents were recorded with an EPC10 amplifier (HEKA electronics, Germany) and sampled at 10 kHz or higher and filtered with 3 kHz (-3 dB) or higher as appropriate for the sampling rate.
(§3) Tetra-pentyl-ammonium chloride (TPenA) was purchased from Merck (Sigma-Aldrich), prepared as 100 mM stocks in intracellular recording solution, stored at −20 °C and diluted to a final concentration in intracellular recording solution before measurements. Decyl-MethaneThioSulfonate (Decyl-MTS), (2-(trimethylammonium)ethyl)MethaneThioSulfonate bromide (MTS-ET^+) and Sodium (2-sulfonatoethyl)MethaneThioSulfonate (MTS-ES^-) were purchased from Toronto Research Chemicals. MTS-ET^+ was directly dissolved to the desired concentration of 1 mM in the intracellular recording solution before each experiment. MTS-ET^+ was used immediately after dilution for maximally 5 min. Decyl-MTS and […] were prepared as 10 - 100 mM stocks in DMSO and diluted to the desired concentration before the measurements.
(§4) The fold current increase (fold activation) of a ligand (decyl-MTS) was calculated from the following equation:1 FoldactivationFA=Iactivated/Ibasal with Iactivated represents the stable current level in the presence of 100 µM decyl-MTS and Ibasal the measured current before application of the MTS probe.

The next assay addresses T2, TREK-1 V322C (Homo sapiens, UniProt O95069, V322C).
T2 construct: expressed in transfected cells; host or cells: Xenopus laevis oocytes (cRNA injection), excised inside-out patches
T2 sequence (O95069 1-426 V322C): T1 sequence (O95069 1-426 F325C) with V322C, C325F
The assay is described as follows: MTS probe modification, inside-out patch-clamp. Format: cell-based. Particulars: 100 µM decyl-MTS. The protocol: as §1, §2, §3, §4
In general terms: The patch-clamp technique gives a direct electrical read-out from membranes.

Consider `CCCCCCCCCCSS(C)(=O)=O` [decyl-MTS, Decyl-MethaneThioSulfonate], for which the “full current increase (fold activation)” value at TREK-1 F325C (mean ± s.e.m.) came out at 103 ± 20 fold; at TREK-1 V322C (mean ± s.e.m.), 42 ± 17 fold. For the same molecule, the “effect on current” value on TREK-1 F325C (symmetric K+, +40 mV, pH 7.4) is “robust activation”; on TREK-1 V322C (symmetrical K+, +40 mV, pH 7.4), “strong and irreversible activation”.
